Columns and labels:
Assay type in all cases: cell-based
Reh = assay: MTT assay, Reh cells; conditions: Homo sapiens, 24 h, read-out: Viability rate
Procedure: (§1) K562, Jurkat, Molt-4, and Nalm-6 cell lines were cultured in RPMI-1640 medium (ECM2001, Euroclone), Reh cell line was cultured in DMEM medium (LM-D1111-Biosera) Hek293T cell line was cultured in IMDM medium (AL070A - HiMedia) supplemented with 10% heat-inactivated fetal bovine serum (F7524-Merck & Co., USA,) penicillin and streptomycin (P4333-Sigma Aldrich). K562, Jurkat and Molt-4 cell lines were seeded as 4x10^5/ml, Reh and Nalm-6 cell lines were seeded 5x10^5/ml, Hek293T cell line was seed as 2x10^5/ml. All cells were incubated at 5% CO2 and 37 °C. All cell lines were kindly provided by Dr. M. Sayitoglu and Dr. Ö. Hatirnaz-Ng from Acibadem University.
(§2) MTT assay is a 3-day test. On the first day, cell count was performed in Bio Rad TC-20 device with the help of trypan blue, each cell line was prepared by diluting to the specified concentrations and seeded in a 96-well plate as 100μL to each well and incubated for 1 day.
(§3) Each compound was solved in DMSO, their stock solutions (33.3, 10, 5, 1 mM, and 300 μM) were prepared by diluting with the same solvent and they were stored under −20°C when they were not used.
(§4) On the second day, stock solutions were subsequently diluted to various concentrations (0.3–200 μM) with related medium prior to experiments. Specified concentrations of the compounds were seeded in a 96-well plate as 100μL to each well and incubated for 24 h.
(§5) After incubation (on the third day), to precipitate leukemia cells, the cell plate was centrifuged at 1500 rpm for 5 min. Then, 100 μL of supernatant was removed from each well carefully and 10 μl of MTT solution (5 mg/mL) was added to each well and incubated at 37 °C for 4 h. The 50 μl of supernatant was discarded from each well and 100 μl of DMSO was added to dissolve the formazan. Plates were shaken for 45 min to dissolve the dye. Then the optical density of each well was measured by using Thermo VarioSkan Flush Multimode Reader Quantum ST5-1100 at 570 nm wavelength.
(§6) Subsequently, viability rate of the cells at each concentration, as percentage, was determined by following formula (1):
(§7) Viability rate (%)=100-[(OD(control)-OD(sample))/OD(control)×100].OD=Optical Density
(§8) The IC50 values were calculated by using GraphPad Prism. All the data presented as the mean of 6 replicates. Results were analyzed and illustrated with Graph Pad Prism (version 5; GraphPad Software, San Diego, CA, USA). Statistical analysis was performed using dose-response inhibition, log(inhibitor) vs response-variable slope, least squares (ordinary) fit.
(§9) To evaluate in-vitro anti-cancer activity of the newly synthesized compounds, they were tested by using the MTT assay in the BCR-ABL positive leukemic cell line (K562), BCR-ABL negative leukemic cell lines (Nalm-6, Molt-4, Reh and Jurkat), and non-leukemic human embryonic kidney tissue (Hek293T) cell line. […] The viability rate of each concentration was calculated by the formula stated in material and methods, the viability rate results for each cell were presented in Table S2 and Figure S44.

Nalm-6 = assay: MTT assay, Nalm-6 cells; conditions: Homo sapiens, 24 h
Procedure: (§10) After incubation (on the third day), to precipitate leukemia cells, the cell plate was centrifuged at 1500 rpm for 5 min. […] The 50 μl of supernatant was discarded from each well and 100 μl of DMSO was added to dissolve the formazan. Plates were shaken for 45 min to dissolve the dye. Then the optical density of each well was measured by using Thermo VarioSkan Flush Multimode Reader Quantum ST5-1100 at 570 nm wavelength.
(§11) The IC50 values were calculated by using GraphPad Prism. All the data presented as the mean of 6 replicates. […] Statistical analysis was performed using dose-response inhibition, log(inhibitor) vs response-variable slope, least squares (ordinary) fit.

Molt-4 = assay: MTT assay, Molt-4 cells; conditions: Homo sapiens, MOLT-4, 24 h, read-out: Viability rate
Procedure: as §1, §2, §3, §4, §5, §6, §7, §8, §9

[1] = MTT assay, Hek293T non-leukemic control cells; conditions: human, read-out: Viability rate
Procedure: as §1, §2, §3, §4, §5, §6, §7, §8, §9

[2] = system: K562, Nalm-6, Molt-4, Reh, Jurkat, Hek293T cell lines; assay: MTT assay, overall judgement over all cell lines; conditions: overall judgement in words; for 6 and 10: on all cell lines, except Reh
Procedure: as §9

Jurkat = assay: MTT assay, Jurkat cells; conditions: Homo sapiens, 24 h, read-out: Viability rate
Procedure: as §1, §2, §3, §4, §5, §6, §7, §8, §9

K562 = assay: MTT assay, K562 cells; conditions: Homo sapiens, 24 h, MTT, read-out: Viability rate
Procedure: as §10, §11

Molecule `COc1ccc(CN2CCN(Cc3ccc(C(=O)Nc4ccc(C)c(Nc5nccc(C)n5)c4)cc3)CC2)c(OC)c1OC` [Compound 6] has a viability at 0.3 µM (Reh; 0.3 μM) of 109.5 ± 0.02%, a viability at 0.5 µM (Reh; 0.5 μM) of 105.2 ± 0.02% and a viability at 1 µM (Reh; 1 μM) of 106.8 ± 0.01%. For the same molecule, the viability at 3 µM (Reh; 3 μM) was 107.9 ± 0.02%, the viability at 5 µM (Reh; 5 μM) was 108.2 ± 0.01% and the viability at 10 µM (Reh; 10 μM) was 106.9 ± 0.02%. The viability at 15 µM (Reh; 15 μM) was 106.5 ± 0.02%, the viability at 20 µM (Reh; 20 μM) was 97.7 ± 0.02% and the viability at 30 µM (Reh; 30 μM) was 88.6 ± 0.03%. The viability at 50 µM (Reh; 50 μM) was 85.6 ± 0.02%, the viability at 70 µM (Reh; 70 μM) was 65.3 ± 0.02% and the viability at 100 µM (Reh; 100 μM) was 62.2 ± 0.01%. For the same molecule, the viability at 150 µM (Reh; 150 μM) was 61.3 ± 0.01%, the viability at 200 µM (Reh; 200 μM) was 61.1 ± 0.02% and the viability at 0.3 µM (Nalm-6; Nalm-6, 0.3 μM, MTT, read-out: Viability rate) was 100.7 ± 0.01%. For the same molecule, the viability at 0.5 µM (Nalm-6; Nalm-6, 0.5 μM, MTT, read-out: Viability rate) was 100.5 ± 0.02%, the viability at 1 µM (Nalm-6; Nalm-6, 1 μM, MTT, read-out: Viability rate) was 100.1 ± 0.03% and the viability at 3 µM (Nalm-6; Nalm-6, 3 μM, MTT, read-out: Viability rate) was 100 ± 0.04%. For the same molecule, the viability at 5 µM (Nalm-6; Nalm-6, 5 μM, MTT, read-out: Viability rate) was 98.8 ± 0.04%, the viability at 10 µM (Nalm-6; Nalm-6, 10 μM, MTT, read-out: Viability rate) was 98 ± 0.02% and the viability at 15 µM (Nalm-6; Nalm-6, 15 μM, MTT, read-out: Viability rate) was 95.6 ± 0.02%. The viability at 20 µM (Nalm-6; Nalm-6, 20 μM, MTT, read-out: Viability rate) was 82.6 ± 0.02%, the viability at 30 µM (Nalm-6; Nalm-6, 30 μM, MTT, read-out: Viability rate) was 71.6 ± 0.01% and the viability at 50 µM (Nalm-6; Nalm-6, 50 μM, MTT, read-out: Viability rate) was 55.2 ± 0.01%. The viability at 70 µM (Nalm-6; Nalm-6, 70 μM, MTT, read-out: Viability rate) was 43.5 ± 0.01%, the viability at 100 µM (Nalm-6; Nalm-6, 100 μM, MTT, read-out: Viability rate) was 42.6 ± 0.01% and the viability at 150 µM (Nalm-6; Nalm-6, 150 μM, MTT, read-out: Viability rate) was 42.9 ± 0.01%. For the same molecule, the viability at 200 µM (Nalm-6; Nalm-6, 200 μM, MTT, read-out: Viability rate) was 42.8%, the IC50 (Nalm-6; Nalm-6, MTT, range 0.3–200 μM, six replicates) was 48 µM and the viability at 0.3 µM (Molt-4; Molt-4, 0.3 μM) was 84.4 ± 0.14%. It also gave a viability at 0.5 µM (Molt-4; Molt-4, 0.5 μM) of 79.7 ± 0.1%, a viability at 1 µM (Molt-4; Molt-4, 1 μM) of 78.7 ± 0.09% and a viability at 3 µM (Molt-4; Molt-4, 3 μM) of 79.7 ± 0.18%. It also gave a viability at 5 µM (Molt-4; Molt-4, 5 μM) of 80.5 ± 0.16%, a viability at 10 µM (Molt-4; Molt-4, 10 μM) of 81.8 ± 0.07% and a viability at 15 µM (Molt-4; Molt-4, 15 μM) of 79.2 ± 0.15%. The viability at 20 µM (Molt-4; Molt-4, 20 μM) was 76 ± 0.05%, the viability at 30 µM (Molt-4; Molt-4, 30 μM) was 75.4 ± 0.08% and the viability at 50 µM (Molt-4; Molt-4, 50 μM) was 73.5 ± 0.04%. The viability at 70 µM (Molt-4; Molt-4, 70 μM) was 68.9 ± 0.06%, the viability at 100 µM (Molt-4; Molt-4, 100 μM) was 61.7 ± 0.02% and the viability at 150 µM (Molt-4; Molt-4, 150 μM) was 59.9 ± 0.05%. The viability at 200 µM (Molt-4; Molt-4, 200 μM) was 55.2 ± 0.04%, the viability at 24 h, 0.3 µM ([1]; Hek293T cells (non-leukemic control cell line), 0.3 μM) was 91.1 ± 0.15% and the viability at 24 h, 0.5 µM ([1]; Hek293T cells (non-leukemic control cell line), 0.5 μM) was 90.8 ± 0.14%. It also gave a viability at 24 h, 3 µM ([1]; Hek293T cells (non-leukemic control cell line), 3 μM) of 81.4 ± 0.09%, a viability at 24 h, 5 µM ([1]; Hek293T cells (non-leukemic control cell line), 5 μM) of 78.5 ± 0.14% and a viability at 24 h, 10 µM ([1]; Hek293T cells (non-leukemic control cell line), 10 μM) of 78.2 ± 0.02%. The viability at 24 h, 15 µM ([1]; Hek293T cells (non-leukemic control cell line), 15 μM) was 70.6 ± 0.04%, the viability at 24 h, 20 µM ([1]; Hek293T cells (non-leukemic control cell line), 20 μM) was 65.5 ± 0.1% and the viability at 24 h, 30 µM ([1]; Hek293T cells (non-leukemic control cell line), 30 μM) was 57.4 ± 0.09%. The viability at 24 h, 50 µM ([1]; Hek293T cells (non-leukemic control cell line), 50 μM) was 50.7 ± 0.05%, the viability at 24 h, 70 µM ([1]; Hek293T cells (non-leukemic control cell line), 70 μM) was 48.8 ± 0.02% and the viability at 24 h, 100 µM ([1]; Hek293T cells (non-leukemic control cell line), 100 μM) was 47.9 ± 0.01%. The viability at 24 h, 150 µM ([1]; Hek293T cells (non-leukemic control cell line), 150 μM) was 47.7 ± 0.02%, the viability at 24 h, 200 µM ([1]; Hek293T cells (non-leukemic control cell line), 200 μM) was 47 ± 0.02% and the viability at 24 h, 1 µM ([1]; Hek293T cells, 1 μM) was 87 ± 0.15%. The “anticancer activity according to MTT assay results” value [2] was “high anticancer activity”, the viability at 3 µM (Jurkat; 3 μM) was 79.1 ± 0.02% and the viability at 5 µM (Jurkat; 5 μM) was 69.8 ± 0.02%. For the same molecule, the viability at 10 µM (Jurkat; 10 μM) was 69.7 ± 0.05%, the viability at 15 µM (Jurkat; 15 μM) was 69.2 ± 0.02% and the viability at 20 µM (Jurkat; 20 μM) was 68.9 ± 0.01%. For the same molecule, the viability at 30 µM (Jurkat; 30 μM) was 68.8 ± 0.03%, the viability at 50 µM (Jurkat; 50 μM) was 59.1 ± 0.03% and the viability at 70 µM (Jurkat; 70 μM) was 47.8 ± 0.01%. It also gave a viability at 100 µM (Jurkat; 100 μM) of 44 ± 0.01%, a viability at 150 µM (Jurkat; 150 μM) of 36.4 ± 0.01% and a viability at 200 µM (Jurkat; 200 μM) of 35.3 ± 0.01%. It also gave a viability at 0.3 µM (K562; K562, 0.3 μM) of 92.5 ± 0.11%, a viability at 0.5 µM (K562; K562, 0.5 μM) of 91.8 ± 0.06% and a viability at 1 µM (K562; K562, 1 μM) of 91.8 ± 0.04%. For the same molecule, the viability at 3 µM (K562; K562, 3 μM) was 88.7 ± 0.05%, the viability at 5 µM (K562; K562, 5 μM) was 87.6 ± 0.05% and the viability at 10 µM (K562; K562, 10 μM) was 87.3 ± 0.11%. It also gave a viability at 15 µM (K562; K562, 15 μM) of 87.3 ± 0.1%, a viability at 20 µM (K562; K562, 20 μM) of 86.5 ± 0.07% and a viability at 30 µM (K562; K562, 30 μM) of 85.5 ± 0.1%. For the same molecule, the viability at 50 µM (K562; K562, 50 μM) was 78.1 ± 0.1%, the viability at 70 µM (K562; K562, 70 μM) was 68.5 ± 0.05% and the viability at 100 µM (K562; K562, 100 μM) was 67.5 ± 0.03%. For the same molecule, the viability at 150 µM (K562; K562, 150 μM) was 67.3 ± 0.02% and the viability at 200 µM (K562; K562, 200 μM) was 67.2 ± 0.03%.
